## O=C1CCCCCN1
In acetonitrile, 278.85 K
  solubility (mole fraction): 0.149
In acetonitrile, 283.65 K
  solubility (mole fraction): 0.187
In acetonitrile, 288.25 K
  solubility (mole fraction): 0.236
In acetonitrile, 293.55 K
  solubility (mole fraction): 0.294
In acetonitrile, 298.45 K
  solubility (mole fraction): 0.359
In acetonitrile, 303.65 K
  solubility (mole fraction): 0.427
In acetonitrile, 308.15 K
  solubility (mole fraction): 0.486
In acetonitrile, 313.15 K
  solubility (mole fraction): 0.558
In acetonitrile, 318.65 K
  solubility (mole fraction): 0.637
In acetonitrile, 323.15 K
  solubility (mole fraction): 0.725
In benzene, 279.25 K
  solubility (mole fraction): 0.2
In benzene, 284.15 K
  solubility (mole fraction): 0.232
In benzene, 288.55 K
  solubility (mole fraction): 0.27
In benzene, 293.15 K
  solubility (mole fraction): 0.31
In benzene, 297.85 K
  solubility (mole fraction): 0.361
In benzene, 303.05 K
  solubility (mole fraction): 0.423
In benzene, 307.25 K
  solubility (mole fraction): 0.482
In benzene, 313.25 K
  solubility (mole fraction): 0.566
In benzene, 317.45 K
  solubility (mole fraction): 0.631
In benzene, 321.75 K
  solubility (mole fraction): 0.701
In cyclohexane, 283.65 K
  solubility (mole fraction): 0.0042
In cyclohexane, 288.25 K
  solubility (mole fraction): 0.00616
In cyclohexane, 292.85 K
  solubility (mole fraction): 0.00897
In cyclohexane, 297.95 K
  solubility (mole fraction): 0.0144
In cyclohexane, 302.95 K
  solubility (mole fraction): 0.0244
In cyclohexane, 307.25 K
  solubility (mole fraction): 0.0373
In cyclohexane, 312.55 K
  solubility (mole fraction): 0.0617
In cyclohexane, 318.35 K
  solubility (mole fraction): 0.108
In cyclohexane, 322.65 K
  solubility (mole fraction): 0.163
In ethyl acetate, 278.85 K
  solubility (mole fraction): 0.103
In ethyl acetate, 283.65 K
  solubility (mole fraction): 0.127
In ethyl acetate, 288.35 K
  solubility (mole fraction): 0.156
In ethyl acetate, 292.95 K
  solubility (mole fraction): 0.192
In ethyl acetate, 298.05 K
  solubility (mole fraction): 0.243
In ethyl acetate, 302.85 K
  solubility (mole fraction): 0.304
In ethyl acetate, 307.15 K
  solubility (mole fraction): 0.364
In ethyl acetate, 312.35 K
  solubility (mole fraction): 0.459
In ethyl acetate, 317.15 K
  solubility (mole fraction): 0.557
In ethyl acetate, 321.55 K
  solubility (mole fraction): 0.654

— BigSolDB 2.1
